Measured values: paper doi:10.1101/2022.07.05.498881v1 (biorxiv, 2022)
pIC50: −log10 of the molar value. Like-named read-outs stand apart in the source and are kept apart here.

Columns and labels:
[1] = target: T1, SARS-CoV-2 MPro (main protease, 3CL protease, Nsp5) (Severe acute respiratory syndrome coronavirus 2, UniProt P0DTD1); assay: biochemical; parameters: fluorogenic NSP7 peptide substrate cleavage, concentration-response inhibition of MPro
T1 construct: gene rep

[2] = target: T2, MERS MPro (MERS-CoV MPro, MERS major protease) (Betacoronavirus England 1, UniProt K9N7C7); assay: biochemical
T2 construct: gene rep
T2 sequence (K9N7C7 3248-3553 limits assumed): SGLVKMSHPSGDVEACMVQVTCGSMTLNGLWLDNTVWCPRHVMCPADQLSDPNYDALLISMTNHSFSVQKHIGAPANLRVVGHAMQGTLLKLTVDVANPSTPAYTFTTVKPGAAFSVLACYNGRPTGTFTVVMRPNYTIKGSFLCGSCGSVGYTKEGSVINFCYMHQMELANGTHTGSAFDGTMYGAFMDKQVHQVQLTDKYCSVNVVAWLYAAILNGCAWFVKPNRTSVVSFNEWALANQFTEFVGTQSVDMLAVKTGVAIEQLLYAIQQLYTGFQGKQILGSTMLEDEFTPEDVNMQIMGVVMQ

[3] = target: T3, SARS-CoV-1 MPro (SARS-CoV-1 major protease) (Severe acute respiratory syndrome-related coronavirus, UniProt P0C6X7); assay: biochemical
T3 construct: gene rep

[4] = target: T1, SARS-CoV-2 MPro (main protease, 3CL protease, Nsp5); parameters: fluorogenic NSP7 peptide substrate cleavage, concentration-response inhibition of MPro; settings: read-out: IC50 [µM] (ACN); compound in acetonitrile; inhibitor

Row | Compound | pIC50 [1] | further results
1 | COc1cc(C=O)c(OS(=O)(=O)CC2CCCCC2)cc1OC [ZINC271072260] | 3.94 | –
2 | CC1CN(C(=O)CCn2cc(Br)ccc2=O)Cc2ccccc2O1 (stereo not shown) [ZINC553840273] | 3.70 | –
3 | O=Cc1ncc(Br)cc1OCc1ccc(Cl)c([N+](=O)[O-])c1 ['7021] | – | pIC50 [2]: 4.30; pIC50 [3]: 5.10
4 | Cc1noc(C)c1CCCNc1nc(-c2ccncc2)nc2ccccc12 [ZINC301553312] | 3.91 | –
5 | CC1CN(c2ncnc3sc4ccccc4c23)CC(=O)N1C (stereo not shown) [ZINC336912805] | – | IC50 [4]: 177 µM; IC50 ([1]; read-out: IC50 [µM] (DMSO), compound in DMSO, inhibitor): 250 µM
6 | COC(=O)c1cc(C#N)c(=O)n(Cc2cccc(F)c2Cl)c1 [ZINC338540162] | 3.55 | –
7 | O=c1cc(CN2CC(CO)c3ccccc32)nc2ccccn12 (stereo not shown) [ZINC433294115] | 4.01 | –
8 | O=C(Cc1cccnc1)N(Cc1ccccn1)c1ccc(Cl)cc1 [ZINC346371112] | 3.67 | –
